Reference: patent US9394297B2, “Amides as pim inhibitors” (AMGEN INC., priority 2012, dated 2016)
Read-outs that look alike come from different tables or passages of the source.

Legend:
[1] = tested on: KMS-12-BM cell lines; assay: KMS12 #2 flow cytometry assay (phospho-BAD Ser112); assay type: cell-based; conditions: Homo sapiens, 110 min, read-out: KMS-12-Flow IC50 IP
[2] = target: Pim-1 (Homo sapiens (Human), UniProt P11309); assay: Pim-Mn enzyme assay (HTRF, 384-well), Pim-1; assay type: biochemical; conditions: read-out: Pim-1-Mn IC50 IP
Pim-1, sequence (P11309 whole entry): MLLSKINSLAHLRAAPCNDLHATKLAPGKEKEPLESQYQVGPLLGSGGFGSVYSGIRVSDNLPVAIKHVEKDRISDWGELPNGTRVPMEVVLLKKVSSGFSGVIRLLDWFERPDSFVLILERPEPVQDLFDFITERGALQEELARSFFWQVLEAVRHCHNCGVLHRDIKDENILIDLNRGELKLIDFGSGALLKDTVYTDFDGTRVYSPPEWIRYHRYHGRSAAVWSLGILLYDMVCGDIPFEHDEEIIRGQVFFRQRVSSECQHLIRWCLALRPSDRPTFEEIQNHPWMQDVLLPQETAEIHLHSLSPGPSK

[3] = target: Pim-2 (Homo sapiens (Human), UniProt Q9P1W9); assay: Pim-Mn enzyme assay (HTRF, 384-well), Pim-2; assay type: biochemical; conditions: read-out: Pim-2-Mn IC50 IP
Pim-2, sequence (Q9P1W9 whole entry): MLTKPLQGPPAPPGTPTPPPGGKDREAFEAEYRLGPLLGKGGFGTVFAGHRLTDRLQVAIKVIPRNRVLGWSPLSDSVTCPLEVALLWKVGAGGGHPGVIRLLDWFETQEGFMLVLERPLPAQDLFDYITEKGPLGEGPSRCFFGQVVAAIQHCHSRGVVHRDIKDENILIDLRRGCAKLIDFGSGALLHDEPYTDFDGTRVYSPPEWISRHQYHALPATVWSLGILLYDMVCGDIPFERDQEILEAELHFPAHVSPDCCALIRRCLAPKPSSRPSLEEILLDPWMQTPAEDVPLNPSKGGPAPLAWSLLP

[4] = KMS-12-BM cells, pBAD Ser112 by flow cytometry, 110 min with compound
[5] = Pim-1 enzyme 5 pM, ATP 1.5 μM, BAD (S112) 0.5 μM, HTRF, 22-point curve
[6] = Pim-2 enzyme 0.5 pM, ATP 1.5 μM, BAD (S112) 0.5 μM, HTRF, 22-point curve

Structure (SMILES)	IC50 [1, 4] [nM]	IC50 [2, 5] [nM]	IC50 [3, 6] [nM]	IC50 [2] [nM]	IC50 [3] [nM]	IC50 ([1]; KMS-12-BM) [nM]
CC(=O)Nc1nc2c(-c3cc4c([nH]3)CCNC4=O)cccc2nc1C [Example 445, N-(3-methyl-8-(4-oxo-4,5,6,7-tetrahydro-1H-pyrrolo[3,2-c]pyridin-2-yl)quinoxalin-2-yl)acetamide]	> 40000	27.9	20.1	–	–	–
CC(C)Nc1nc2c(-c3cc4c([nH]3)CCNC4=O)cccc2c(=O)n1-c1cccnc1 [Example 403, 2-((1-methylethyl)amino)-8-(4-oxo-4,5,6,7-tetrahydro-1H-pyrrolo[3,2-c]pyridin-2-yl)-3-(3-pyridinyl)-4(3H)-quinazolinone]	> 40000	11.5	16.4	–	–	–
Cc1nc2ccc(F)c(-c3cc4c([nH]3)C3(CC3)NC4=O)c2nc1NC1(C)CC1 [Example 378, 2′-(6-fluoro-2-methyl-3-((1-methylcyclopropyl)amino)quinoxalin-5-yl)-1′H-spiro[cyclopropane-1,6′-pyrrolo[3,4-b]pyrrol]-4′(5′H)-one]	16.1	–	–	0.0295	0.0354	–
Cc1nc2cccc(-c3cc4c([nH]3)CCNC4=O)c2nc1-c1ccncc1Cl [Example 411, 2-(3-(3-chloro-4-pyridinyl)-2-methyl-5-quinoxalinyl)-1,5,6,7-tetrahydro-4H-pyrrolo[3,2-c]pyridin-4-one]	> 40000	66.5	239	–	–	–
Cc1nc2cccc(-c3cc4c([nH]3)C(COCc3ccccc3)NC4=O)c2nc1NC1(C)CC1 (stereo not drawn) [Example 355, 6-((benzyloxy)methyl)-2-(2-methyl-3-((1-methylcyclopropyl)amino)quinoxalin-5-yl)-5,6-dihydropyrrolo[3,4-b]pyrrol-4 (1H)-one]	2430	–	1.86	1.79	–	–
Cc1cccc(C)c1-c1cnc2cccc(-c3cc4c([nH]3)CCNC4=O)c2n1 [Example 401, 2-(3-(2,6-dimethylphenyl)-5-quinoxalinyl)-1,5,6,7-tetrahydro-4H-pyrrolo[3,2-c]pyridin-4-one]	18500	19.5	34.9	–	–	–
Cc1nc2cccc(-c3cc4c([nH]3)C3(CC3)NC4=O)c2nc1NC(C)(C)C [Example 324, 2′-(3-(tert-butylamino)-2-methyl-5-quinoxalinyl)-1′H-spiro[cyclopropane-1,6′-pyrrolo[3,4-b]pyrrol]-4′(5′H)-one]	91.7	0.139	–	–	0.223	–
Cc1nc2cccc(-c3cc4c([nH]3)CCNC4=O)c2nc1NC(=O)C1CC1 [Example 446, N-(3-methyl-8-(4-oxo-4,5,6,7-tetrahydro-1H-pyrrolo[3,2-c]pyridin-2-yl)quinoxalin-2-yl)cyclopropanecarboxamide]	> 40000	145	131	–	–	–
Cc1nc2cccc(-c3cc4n(c3)C(=O)NC4)c2nc1NC(C)(C)C [Example 421, 6-(3-(tert-butylamino)-2-methylquinoxalin-5-yl)-1H-pyrrolo[1,2-c]imidazol-3(2H)-one]	21200	86	189	–	–	–
Cc1nc2cccc(-c3cc4c([nH]3)CCN(CO)C4=O)c2nc1NC(C)(C)C [Example 299, 2-(3-(tert-butylamino)-2-methylquinoxalin-5-yl)-5-(hydroxymethyl)-6,7-dihydro-1H-pyrrolo[3,2-c]pyridin-4(5H)-one]	> 40000	7	9	–	–	–
Cc1nc2cccc(-c3cc4c([nH]3)CCNC4=O)c2nc1-c1ccoc1 [Example 431, 2-(3-(Furan-3-yl)-2-methylquinoxalin-5-yl)-6,7-dihydro-1H-pyrrolo[3,2-c]pyridin-4(5H)-one]	5060	67.3	61.9	–	–	–
Cc1nc2cccc(-c3cc4c([nH]3)CCNC4=O)c2nc1N1CC(S(C)(=O)=O)C1 [Example 318, 2-(2-methyl-3-(3-(methylsulfonyl)-1-azetidinyl)-5-quinoxalinyl)-1,5,6,7-tetrahydro-4H-pyrrolo[3,2-c]pyridin-4-one]	> 40000	34.1	26.7	–	–	–
Cc1nc2cccc(-c3cc4c([nH]3)CNC4=O)c2nc1NC1(C)CC1 [Example 357, 2-(2-Methyl-3-((1-methylcyclopropyl)amino)quinoxalin-5-yl)-5,6-dihydropyrrolo[3,4-b]pyrrol-4(1H)-one]	15	–	0.57	0.463	–	–
Cc1nc2cccc(-c3cc4c([nH]3)C3(CC3)NC4=O)c2nc1NC1CC1 [Example 325, 2′-(3-(cyclopropylamino)-2-methyl-5-quinoxalinyl)-1′H-spiro[cyclopropane-1,6′-pyrrolo[3,4-b]pyrrol]-4′(5′H)-one]	–	–	0.242	0.293	–	68.8
Cc1nc2cccc(-c3cc4c([nH]3)CCNC4=O)c2nc1Cl [Example 425, 2-(3-Chloro-2-methylquinoxalin-5-yl)-6,7-dihydro-1H-pyrrolo[3,2-c]pyridin-4(5H)-one]	> 40000	392	521	–	–	–

Continued by falling IC50 [1, 4], values first:

IC50 [1, 4] [nM]	IC50 [2, 5] [nM]	IC50 [3, 6] [nM]	Structure (SMILES)	IC50 [2] [nM]	IC50 [3] [nM]	IC50 ([1]; KMS-12-BM) [nM]
2350	9.23	8.9	COC1=NCCc2[nH]c(-c3cccc4nc(C)c(NC(C)(C)C)nc34)cc21 [Example 351, N-tert-butyl-8-(4-methoxy-6,7-dihydro-1H-pyrrolo[3,2-c]pyridin-2-yl)-3-methyl-2-quinoxalinamine]	–	–	–
1160	3.55	3.76	CC(C)(C)Nc1nc2c(-c3cc4c([nH]3)CCNC4=O)cccc2nc1C#N [Example 309, 3-(tert-butylamino)-5-(4-oxo-4,5,6,7-tetrahydro-1H-pyrrolo[3,2-c]pyridin-2-yl)quinoxaline-2-carbonitrile]	–	–	–
1120	4.07	10.8	CC(C)(C)Nc1nc2c(-c3cc4c([nH]3)CCNC4=O)cccc2nc1N1CC(O)C1 [Example 346, 2-(3-(tert-butylamino)-2-(3-hydroxy-1-azetidinyl)-5-quinoxalinyl)-1,5,6,7-tetrahydro-4H-pyrrolo[3,2-c]pyridin-4-one]	–	–	–
659	1.5	2.6	CC(C)(C)Nc1nc2c(-c3cc4c([nH]3)CCNC4=O)cccc2c(=O)n1-c1cccnc1 [Example 404, 2-(tert-butylamino)-8-(4-oxo-4,5,6,7-tetrahydro-1H-pyrrolo[3,2-c]pyridin-2-yl)-3-(3-pyridinyl)-4(3H)-quinazolinone]	–	–	–
590	5.91	5.87	CC(C)Nc1nc2c(-c3cc4c([nH]3)CCNC4=O)cccc2c(=O)n1-c1ccccc1 [Example 402, 2-((1-methylethyl)amino)-8-(4-oxo-4,5,6,7-tetrahydro-1H-pyrrolo[3,2-c]pyridin-2-yl)-3-phenyl-4(3H)-quinazolinone]	–	–	–
572	0.839	1.47	Cc1nc2cccc(-c3cc4c([nH]3)CCCC4=O)c2nc1NC(C)(C)C [Example 303, 2-(3-(tert-butylamino)-2-methylquinoxalin-5-yl)-6,7-dihydro-1H-indol-4(5H)-one]	–	–	–
188	1.59	2.45	Cc1nc2ccc(F)c(-c3cc4c([nH]3)[C@H]([C@@H](C)O)NC4=O)c2nc1NC1CC1 [Example 352, (6R)-2-(3-(cyclopropylamino)-6-fluoro-2-methyl-5-quinoxalinyl)-6-((1R)-1-hydroxyethyl)-5,6-dihydropyrrolo[3,4-b]pyrrol-4(1H)-one]	–	–	–
122	0.51	0.47	Cc1nc2cccc(-c3cc4c([nH]3)C(CCO)NC4=O)c2nc1NC(C)(C)C (stereo not drawn) [Example 462, 2-(3-(tert-butylamino)-2-methyl-5-quinoxalinyl)-6-(2-hydroxyethyl)-5,6-dihydropyrrolo[3,4-b]pyrrol-4(1H)-one]	–	–	–
121	1.34	0.917	COCCOCCn1c(NC(C)(C)C)nc2c(-c3cc4c([nH]3)[C@@H](C)NC4=O)cccc2c1=O [Example 474, 2-(tert-butylamino)-3-(2-(2-methoxyethoxyl)ethyl)-8-((6R)-6-methyl-4-oxo-1,4,5,6-tetrahydropyrrolo[3,4-b]pyrrol-2-yl)-4(3H)-quinazolinone]	–	–	–
99.3	1.22	0.996	Cc1nc2cccc(-c3cc4c([nH]3)CCNC4=O)c2nc1NCC1(C)CC1 [Example 335, 2-(2-Methyl-3-(((1-methylcyclopropyl)methyl)amino)-5-quinoxalinyl)-1,5,6,7-tetrahydro-4H-pyrrolo[3,2-c]pyridin-4-one]	–	–	–
79.4	0.192	0.177	Cc1nc2cccc(-c3cc4c([nH]3)[C@@H](CO)NC4=O)c2nc1NC1CC1 [Example 366, (S)-2-(3-(cyclopropylamino)-2-methylquinoxalin-5-yl)-6-(hydroxymethyl)-5,6-dihydropyrrolo[3,4-b]pyrrol-4(1H)-one]	–	–	–
75.2	0.303	0.278	Cc1nc2ccc(F)c(-c3cc4c([nH]3)C3(CC3)NC4=O)c2nc1NC1CC1 [Example 283, 2′-(3-(cyclopropylamino)-6-fluoro-2-methylquinoxalin-5-yl)-1′H-spiro[cyclopropane-1,6′-pyrrolo[3,4-b]pyrrol]-4′(5′H)-one]	–	–	–
46	0.195	0.201	Cc1nc2cccc(-c3cc4c([nH]3)[C@H](C)NC4=O)c2nc1NC1(C)CC1 [Example 328, (6S)-6-methyl-2-(2-methyl-3-((1-methylcyclopropyl)amino)-5-quinoxalinyl)-5,6-dihydropyrrolo[3,4-b]pyrrol-4(1H)-one]	–	–	–
